In PubChem BioAssay (NCI):
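48-hour exposure; five concentrations; linearly interpolated endpoints. TGI: concentration producing complete growth inhibition.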

Columns and labels:
Assay in all cases: inhibition of tumour cell growth, NCI panel, 48 h
UACC-62 melanoma = test system: UACC-62 melanoma
SK-MEL-2 melanoma = test system: SK-MEL-2 melanoma
LOX IMVI melanoma = test system: LOX IMVI melanoma
SW-620 colon = test system: SW-620 colon
MDA-N = test system: MDA-N
SK-OV-3 ovarian = test system: SK-OV-3 ovarian
TK-10 renal = test system: TK-10 renal
NCI-H522 lung = test system: NCI-H522 lung
SN12C renal = test system: SN12C renal
MOLT-4 leukemia = test system: MOLT-4 leukemia
OVCAR-4 ovarian = test system: OVCAR-4 ovarian
NCI-H23 lung = test system: NCI-H23 lung
786-0 renal = test system: 786-0 renal
MALME-3M melanoma = test system: MALME-3M melanoma
U251 CNS = test system: U251 CNS
HL-60(TB) leukemia = test system: HL-60(TB) leukemia
MDA-MB-435 = test system: MDA-MB-435
SK-MEL-28 melanoma = test system: SK-MEL-28 melanoma
HOP-92 NSCLC = test system: HOP-92 NSCLC
MCF7 breast = test system: MCF7 breast

SMILES | TGI (UACC-62 melanoma) [µM] | TGI (SK-MEL-2 melanoma) [µM] | TGI (LOX IMVI melanoma) [µM] | TGI (SW-620 colon) [µM] | TGI (MDA-N) [µM] | TGI (SK-OV-3 ovarian) [µM] | TGI (TK-10 renal) [µM] | TGI (NCI-H522 lung) [µM] | TGI (SN12C renal) [µM] | TGI (MOLT-4 leukemia) [µM] | TGI (OVCAR-4 ovarian) [µM] | TGI (NCI-H23 lung) [µM] | TGI (786-0 renal) [µM] | TGI (MALME-3M melanoma) [µM] | TGI (U251 CNS) [µM] | TGI (HL-60(TB) leukemia) [µM] | TGI (MDA-MB-435) [µM] | TGI (SK-MEL-28 melanoma) [µM] | TGI (HOP-92 NSCLC) [µM] | TGI (MCF7 breast) [µM]
COc1ccc2c(c1)OCC1=C2Oc2ccccc2C1 | > 100 | 77.5 | 55.9 | > 100 | 71.1 | > 100 | > 100 | 70.2 | > 100 | 85.5 | > 100 | > 100 | > 100 | > 100 | > 100 | > 100 | 84.2 | – | – | –
O=C(O)COc1cc(-c2ccccc2F)nc2cc3c(cc12)OCO3 | > 100 | > 100 | > 100 | > 100 | > 100 | > 100 | > 100 | – | > 100 | > 100 | – | > 100 | > 100 | > 100 | > 100 | – | > 100 | > 100 | > 100 | > 100
c1ccc(C2(c3ccccc3)S/C(=C3/SC(c4ccccc4)(c4ccccc4)c4ccccc43)c3ccccc32)cc1 | > 100 | > 100 | > 100 | > 100 | > 100 | > 100 | > 100 | > 100 | > 100 | > 100 | > 100 | > 100 | > 100 | > 100 | > 100 | > 100 | > 100 | > 100 | > 100 | –
COC1CC(=O)C2C(=O)N(c3ccccc3)C(=O)C23C(C(=O)c2ccccc2)=C(C)NC13O (stereo unspecified) | 31.3 | 33.6 | 28.9 | 23 | 72.2 | 54 | 20.2 | 6.3 | 37.1 | – | 16.6 | 46.3 | 5.38 | 9.96 | 35.5 | – | 40.9 | 23.6 | 25.2 | 16.7
COc1cccc([C@@H]2C/C(=N\NC(=O)C(=O)N[C@@H](C)c3ccccc3)c3cc4c(cc3N2)OCO4)c1 | > 100 | > 100 | > 100 | > 100 | 28.4 | > 100 | > 100 | – | > 100 | > 100 | > 100 | – | > 100 | – | > 100 | – | 17.2 | > 100 | > 100 | > 100
Cc1cc2nn(C3CCCCO3)nc2cc1C (stereo unspecified) | > 100 | > 100 | – | – | > 100 | > 100 | > 100 | > 100 | > 100 | > 100 | > 100 | > 100 | > 100 | > 100 | > 100 | – | > 100 | – | – | > 100
Clc1ccc(C2ON=C(c3ccccc3)N2C23CC4CC(CC(C4)C2)C3)cc1Cl (stereo unspecified) | > 10 | > 10 | > 10 | > 10 | > 10 | > 10 | > 10 | > 10 | > 10 | > 10 | > 10 | > 10 | > 10 | > 10 | > 10 | – | > 10 | > 10 | > 10 | > 10
O=S(=O)(Nc1nc2ccccc2nc1Nc1cccc2ccccc12)c1ccccc1 | > 100 | > 100 | > 100 | > 100 | > 100 | > 100 | 28.9 | – | > 100 | – | 5.99 | 64.4 | 68.4 | > 100 | 30 | – | > 100 | > 100 | 16.5 | > 100
Cc1cc(C)c(-n2c(C)c(C)c(C#N)c2N)c(C)c1 | – | 51.7 | 40.8 | > 100 | > 100 | > 100 | > 100 | 57.4 | > 100 | 68.5 | > 100 | > 100 | > 100 | 87.8 | 49.7 | 37 | > 100 | > 100 | 74.4 | –
Nc1nc(N)c2c(CCc3ccc(C(=O)N[C@@H](CCC(=O)O)C(=O)O)cc3)ccnc2n1 | > 100 | > 100 | > 100 | > 100 | > 100 | > 100 | > 100 | > 100 | > 100 | > 100 | > 100 | > 100 | > 100 | > 100 | > 100 | > 100 | > 100 | > 100 | > 100 | –
CC1OC1P(=O)(O)O (stereo unspecified) | > 100 | > 100 | > 100 | > 100 | > 100 | > 100 | > 100 | – | > 100 | > 100 | > 100 | > 100 | > 100 | – | > 100 | – | > 100 | > 100 | > 100 | > 100
Cn1cc(S(=O)(=O)NC(=O)Nc2ccc(Cl)cc2)c(=O)c2ccc(Cl)cc21 | > 100 | > 100 | > 100 | > 100 | > 100 | > 100 | > 100 | 41.4 | > 100 | > 100 | > 100 | > 100 | > 100 | > 100 | > 100 | – | > 100 | > 100 | – | > 100
O=C1OCCC12CN(Cc1ccccc1)N=N2 (stereo unspecified) | > 100 | > 100 | – | > 100 | > 100 | > 100 | > 100 | > 100 | > 100 | > 100 | > 100 | > 100 | > 100 | > 100 | > 100 | – | > 100 | > 100 | > 100 | > 100
CSC1=NC(=O)CCN1C1OCC(OC(C)=O)C(OC(C)=O)C1OC(C)=O (stereo unspecified) | > 100 | 22.9 | – | > 31.6 | – | 29.5 | 26 | > 31.6 | > 31.6 | > 31.6 | > 31.6 | > 31.6 | > 31.6 | 23.2 | > 31.6 | > 23 | > 31.6 | 25.4 | 27 | > 100
O=c1oc2cc(O)ccc2c(O)c1C(c1ccc2ccccc2c1)c1c(O)c2ccc(O)cc2oc1=O | > 100 | > 100 | > 100 | > 100 | – | > 100 | > 100 | > 100 | > 100 | > 100 | – | > 100 | > 100 | – | > 100 | 69.2 | > 100 | > 100 | > 100 | > 100
O=C1CC2(CCN(CC3COc4ccccc4O3)CC2)C(=O)N1N1CCCCCC1 (stereo unspecified) | > 100 | > 100 | > 100 | – | – | > 100 | > 100 | > 100 | > 100 | 63.6 | > 100 | > 100 | > 100 | > 100 | > 100 | > 100 | > 100 | > 100 | > 100 | > 100
SCc1ccc(-c2ccc(CS)cc2)cc1 | 41.2 | 41.5 | 15 | 60 | – | 33.2 | > 61.3 | 37.7 | > 81.2 | 6.37 | 17.5 | 31.7 | 59.5 | 36.1 | 31.1 | 12.4 | 22.8 | 24.3 | 40.8 | 29.3
Cc1nc2ccc(F)cc2c2c1CCN2c1ccccc1 | 27.4 | – | 27.6 | > 100 | – | – | 71.5 | 47.1 | – | 52.4 | > 100 | 52.9 | > 100 | 40.8 | 78.9 | 24.6 | 32.8 | 34.3 | 37.8 | 64.7
Cc1ccc(N/C(=C(/C(Cl)=C(Cl)Cl)[N+](=O)[O-])n2nnc3ccccc32)cc1 | – | 35.5 | – | 43.5 | 38.1 | 35.8 | – | – | 43.7 | > 100 | 39.6 | 43.8 | 38.4 | 29.9 | – | – | 40.2 | 33.8 | – | > 100
CN(C)CCn1c2c(c3ccccc31)CCc1ccccc1-2 | 25.9 | 28.6 | 32.2 | 40.4 | – | 32.7 | 30.5 | 29.4 | 28.3 | 29.1 | 28.3 | 31.4 | 28.4 | 30.5 | 26.8 | – | 37.7 | 29.9 | 27 | 30.5
Clc1ccc(-c2c3nc(c(-c4ccc(Cl)cc4)c4ccc([nH]4)c(-c4ccc(Cl)cc4)c4nc(c(-c5ccc(Cl)cc5)c5ccc2[nH]5)C=C4)C=C3)cc1 | > 100 | > 100 | > 100 | > 100 | – | > 100 | > 100 | > 100 | > 100 | > 100 | > 100 | > 100 | > 100 | > 100 | > 100 | > 100 | > 100 | > 100 | > 100 | > 100
